Source: PMC9311798, “A Novel Class of Potent Anti-Tyrosinase Compounds with Antioxidant Activity, 2-(Substituted phenyl)-5-(trifluoromethyl)benzo[d]thiazoles: In Vitro and In Silico Insights” (Antioxidants, 2022)

Tests used:
MITF in B16F10 cells = assay: Western blot of nuclear MITF; type: cell-based, murine; details: nuclear fraction
Experimental: Five different concentrations of 1b (0, 2, 5, 10, and 20 µM) were exposed to B16F10 cells for 48 h, and the cells were washed with cold PBS two times, harvested, lysed, and centrifuged at 4 °C (12,000 rpm for 10 min). Cell pellets were suspended in 10 mM Tris (pH 8.0) containing 1.5 mM MgCl2, 1 mM DTT, 0.1% NP-40, and protease inhibitors (GenDEPOT), incubated on ice for 15 min, and centrifuged at 12,000× g for 15 min at 4 °C. Supernatants (cytosolic fractions) and pellets were resuspended in 10 mM Tris (pH 8.0) containing 50 mM KCl, 100 mM NaCl, and protease inhibitor, incubated on ice for 30 min, and centrifuged at 12,000× g for 15 min at 4 °C. The resultant supernatants were nuclear fractions. The protein concentrations were determined by a Bicinchoninic Acid (BCA)™ Assay Kit (Pierce, Rockford, IL, USA). The lysed protein samples were mixed in loading buffer (0.2% bromophenol blue, 12.5 mM Tris-HCl, pH 6.8, 10% 2-mercaptoethanol, and 4% SDS) at a volume ratio of 1:4, and boiled for 10 min. […] Quantification of Western blot data were analyzed by CS Analyzer 3.2 (Densitograph) image software (http://www.attokorea.co.kr, admitted on 21 May 2022).

[1] = DPPH radical scavenging activity assay; details: compound 1.0 mM, 30 min in the dark, 517 nm
Experimental: The DPPH (2,2-diphenyl-1-picrylhydrazyl) scavenging activities of synthesized compounds 1a–1p were investigated as previously described, with minor modifications. A dimethyl sulfoxide solution (20 µL) containing 10 mM of each compound was mixed with DPPH methanol solution (0.2 mM, 180 µL) in the wells of a 96-well plate, and placed in the dark for 30 min at room temperature. At 517 nm, optical densities were measured using a microplate reader (VersaMax^TM, Molecular Devices, Sunnyvale, CA, USA). The DPPH radical scavenging ability of the 2-arylbenzothiazole derivatives was compared with that of L-ascorbic acid, the positive control. All experiments were performed independently in triplicate.

[2] = system: TRP-1, TRP-2, and tyrosinase mRNA in B16F10 cells; assay: qRT-PCR of melanogenesis-related genes; type: cell-based, murine; details: 24 h; GAPDH internal control; versus untreated controls
Experimental: Total RNAs from cells were extracted using the RiboEx Total RNA solution (GeneAll Biotechnology, Seoul, Korea). Cells in 6-well plates (0.5 mL, 1 × 10^5 cells per well) were transferred to tubes, to which chloroform (0.1 mL) was added, and shaken vigorously for 30 s. Aqueous phases were transferred to fresh tubes, and an equal volume of isopropanol was added. Samples were then incubated for 15 min at 4 °C and centrifuged at 12,000× g for 15 min at 4 °C. After discarding the supernatants, RNA pellets were washed once with 0.5 mL of 75% ethanol, vortexed briefly, and centrifuged at 7500× g for 5 min at 4 °C. Pellets were dried for 10–15 min and dissolved in diethyl pyrocarbonate (DEPC)-treated water. Complementary DNA (cDNA) was synthesized from the total RNA (2 µg) using SuPrime Script RT Premix with random hexamer cDNA Synthesis Kit (GeNet Bio, Daejeon, Korea), in accordance with the manufacturers’ instructions. Quantitative qRT-PCR amplification was performed using SensiFAST^TM SYBR® No-ROX dye (Bioline, London, UK) on the CFX Connect System (Bio-Rad Laboratories, Hercules, CA, USA). The primers specific to TRP-1, TRP-2, tyrosinase, or GAPDH were purchased from Bioneer Inc. (Daejeon, Korea). Relative gene expressions were assessed using GAPDH as the internal control.

mushroom tyrosinase = target: T1, mushroom tyrosinase (Agaricus bisporus, UniProt C7FF04); assay: Mushroom tyrosinase inhibition assay; type: biochemical; details: L-tyrosine as substrate
T1 construct: purchased Sigma-Aldrich
T1 sequence (C7FF04 1-392 limits assumed): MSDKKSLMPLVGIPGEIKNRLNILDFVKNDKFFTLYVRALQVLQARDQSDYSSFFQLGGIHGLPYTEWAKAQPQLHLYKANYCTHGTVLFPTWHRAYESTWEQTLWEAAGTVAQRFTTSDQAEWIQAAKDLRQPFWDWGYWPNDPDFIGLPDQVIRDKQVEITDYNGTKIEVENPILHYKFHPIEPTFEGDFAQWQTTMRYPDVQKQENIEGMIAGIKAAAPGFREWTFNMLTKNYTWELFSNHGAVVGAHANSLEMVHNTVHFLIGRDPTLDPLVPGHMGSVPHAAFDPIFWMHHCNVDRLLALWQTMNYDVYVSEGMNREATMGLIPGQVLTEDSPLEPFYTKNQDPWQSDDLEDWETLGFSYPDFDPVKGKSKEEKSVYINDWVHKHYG
Experimental: Mushroom tyrosinase inhibitory activity was determined as described previously, with minor modifications. L-Tyrosine was used as a substrate to determine enzyme activities. […] These dose-dependent inhibition experiments were carried out three times using three to five different concentrations of test compounds to determine IC50 values. Log–linear curves and their equations were derived from the observed percentages of inhibition.

[3] = ABTS radical scavenging activity assay; details: 100 µM, 2 min in the dark
Experimental: At 734 nm, optical densities of the solutions were measured using a microplate reader (VersaMax^TM, Molecular Devices, Sunnyvale, CA, USA). The ABTS radical scavenging capacities of the 16 2-arylbenzothiazole derivatives were compared with trolox. All experiments were performed independently in triplicate.

## Oc1ccc(-c2nc3cc(C(F)(F)F)ccc3s2)c(O)c1 [Compound 1b, 4-(5-(Trifluoromethyl)benzo[d]thiazol-2-yl)benzene-1,3-diol]
MITF in B16F10 cells; high concentrations (10–20 µM)
  MITF protein levels: significantly and dose-dependently reduced MITF protein levels
MITF in B16F10 cells; low concentrations (2–5 μM)
  MITF protein levels: MITF protein levels increased
[1]
  DPPH radical scavenging activity: moderate DPPH radical scavenging efficacy
[2]
  mRNA expression levels of the three MITF target genes (TRP-1, TRP-2, tyrosinase): significantly and concentration-dependently suppressed
Mushroom tyrosinase
  IC50: 0.2 ± 0.01 µM
Mushroom tyrosinase; IC50 versus kojic acid
  potency relative to kojic acid (fold more potent): 55 fold
Mushroom tyrosinase; versus 1a
  increase of anti-tyrosinase activity relative to 1a: 240 fold
[3]
  ABTS radical scavenging activity (in words): potently scavenged the ABTS radical
[3]; 734 nm
  ABTS free radical scavenged (%): 75%
